Drawing on ChEMBL document CHEMBL4177616, “Potent anti-melanogenic activity and favorable toxicity profile of selected 4-phenyl hydroxycoumarins in the zebrafish model and the computational molecular modeling studies” (Bioorg Med Chem, 2017), this text covers melanin content % of control, mortality and Activity for 2 molecules.

In one data set the target is T1, Tyrosinase (Danio rerio) (UniProt A0A8M1PAD4).
T1 sequence (whole entry): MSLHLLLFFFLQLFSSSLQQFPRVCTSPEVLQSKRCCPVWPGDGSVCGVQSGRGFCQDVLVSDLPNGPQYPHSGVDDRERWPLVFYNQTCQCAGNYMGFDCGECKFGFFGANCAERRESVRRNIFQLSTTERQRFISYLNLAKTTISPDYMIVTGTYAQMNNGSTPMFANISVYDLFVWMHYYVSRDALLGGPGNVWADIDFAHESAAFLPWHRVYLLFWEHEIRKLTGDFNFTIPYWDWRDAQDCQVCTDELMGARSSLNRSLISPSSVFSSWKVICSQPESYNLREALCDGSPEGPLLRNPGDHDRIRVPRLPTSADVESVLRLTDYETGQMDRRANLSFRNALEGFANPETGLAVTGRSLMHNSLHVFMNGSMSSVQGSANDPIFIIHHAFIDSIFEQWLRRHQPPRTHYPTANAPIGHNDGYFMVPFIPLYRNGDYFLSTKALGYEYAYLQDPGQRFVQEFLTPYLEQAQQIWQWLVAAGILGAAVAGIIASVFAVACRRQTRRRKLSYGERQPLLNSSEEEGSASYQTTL
Nature of the data set: Inhibition of zebrafish embryo tyrosinase assessed as melanin production at 50 ug/ml after 48 hrs relative to control; values are per cent of control.

Data set [1] can be described thus: Toxicity in wild type zebrafish embryos assessed as dead embryo at 500 ug/ml treated for 96 hrs post fertilization starting from 6 hrs post fertilization by inverted microscopic analysis relative to control. It is filed as organism-based, Danio rerio. The following applies: in vivo, read-out: Activity.
The species named for data set [2] is Danio rerio. Nature of the data set: Anti-melanogenic activity in wild type zebrafish 24 hrs post fertilization embryos assessed as decrease in body pigmentation at 100 ug/ml after 48 hrs. The class given is functional, organism-based.
For data set [3], the species on record is Danio rerio. As to the kind of experiment: Toxicity in wild type zebrafish embryos assessed as teratogenic embryo at 2000 ug/ml treated for 96 hrs post fertilization starting from 6 hrs post fertilization by inverted microscopic analysis relative to control. It is filed as organism-based. The following applies: in vivo.
The species named for data set [4] is Danio rerio. As to the kind of experiment: Toxicity in wild type zebrafish embryos assessed as teratogenic embryo at 1000 ug/ml treated for 96 hrs post fertilization starting from 6 hrs post fertilization by inverted microscopic analysis relative to control. The class given is organism-based. Conditions: in vivo.
The species named for data set [5] is Danio rerio. Nature of the data set: Toxicity in wild type zebrafish embryos assessed as growth retardation at 2500 ug/ml treated for 96 hrs post fertilization starting from 6 hrs post fertilization by inverted microscopic analysis relative to control. The following applies: in vivo. It is filed as organism-based.
Data set [6] is filed under the species Danio rerio. Nature of the data set: Toxicity in wild type zebrafish embryos assessed as growth retardation at 1000 ug/ml treated for 96 hrs post fertilization starting from 6 hrs post fertilization by inverted microscopic analysis relative to control. The class given is organism-based. The following applies: in vivo.
Data set [7] is filed under the species Danio rerio. Nature of the data set: Toxicity in wild type zebrafish embryos assessed as notochord at 1000 ug/ml treated for 96 hrs post fertilization starting from 6 hrs post fertilization by inverted microscopic analysis relative to control. It is filed as organism-based. The following applies: in vivo.
For data set [8], the species on record is Danio rerio. As to the kind of experiment: Toxicity in wild type zebrafish embryos assessed as eyes at 2500 ug/ml treated for 96 hrs post fertilization starting from 6 hrs post fertilization by inverted microscopic analysis relative to control. Conditions: in vivo. The class given is organism-based.
Data set [9] is filed under the species Danio rerio. Nature of the data set: Toxicity in wild type zebrafish embryos assessed as eyes at 2000 ug/ml treated for 96 hrs post fertilization starting from 6 hrs post fertilization by inverted microscopic analysis relative to control. The following applies: in vivo. It is filed as organism-based.
Data set [10] is filed under the species Danio rerio. As to the kind of experiment: Toxicity in wild type zebrafish embryos assessed as eyes at 1000 ug/ml treated for 96 hrs post fertilization starting from 6 hrs post fertilization by inverted microscopic analysis relative to control. The class given is organism-based. The following applies: in vivo.
The species entered for data set [11] is Danio rerio. As to the kind of experiment: Toxicity in wild type zebrafish embryos assessed as eyes at 500 ug/ml treated for 96 hrs post fertilization starting from 6 hrs post fertilization by inverted microscopic analysis relative to control. The class given is organism-based. Conditions: in vivo.
Data set [12] is filed under the species Danio rerio. As to the kind of experiment: Toxicity in wild type zebrafish embryos assessed as eyes at 100 ug/ml treated for 96 hrs post fertilization starting from 6 hrs post fertilization by inverted microscopic analysis relative to control. It is filed as organism-based. The following applies: in vivo.
The species entered for data set [13] is Danio rerio. As to the kind of experiment: Toxicity in wild type zebrafish embryos assessed as otoliths at 2000 ug/ml treated for 96 hrs post fertilization starting from 6 hrs post fertilization by inverted microscopic analysis relative to control. It is filed as organism-based. Conditions: in vivo.
For data set [14], the system named is Danio rerio. As to the kind of experiment: Toxicity in wild type zebrafish embryos assessed as pericardial edema at 2000 ug/ml treated for 96 hrs post fertilization starting from 6 hrs post fertilization by inverted microscopic analysis relative to control. It is filed as organism-based. The following applies: in vivo.
The test system of data set [15] is Danio rerio. Nature of the data set: Toxicity in wild type zebrafish embryos assessed as pericardial edema at 1000 ug/ml treated for 96 hrs post fertilization starting from 6 hrs post fertilization by inverted microscopic analysis relative to control. The class given is organism-based. The following applies: in vivo.
Data set [16] deals with Danio rerio. As to the kind of experiment: Toxicity in wild type zebrafish embryos assessed as pericardial edema at 100 ug/ml treated for 96 hrs post fertilization starting from 6 hrs post fertilization by inverted microscopic analysis relative to control. It is filed as organism-based. Conditions: in vivo.
Data set [17] has as its system Danio rerio. As to the kind of experiment: Toxicity in wild type zebrafish embryos assessed as yolk edema at 2500 ug/ml treated for 96 hrs post fertilization starting from 6 hrs post fertilization by inverted microscopic analysis relative to control. The class given is organism-based. The following applies: in vivo.
Data set [18] concerns Danio rerio. Nature of the data set: Toxicity in wild type zebrafish embryos assessed as yolk edema at 500 ug/ml treated for 96 hrs post fertilization starting from 6 hrs post fertilization by inverted microscopic analysis relative to control. Conditions: in vivo. The class given is organism-based.
For data set [19], the system named is Danio rerio. As to the kind of experiment: Toxicity in wild type zebrafish embryos assessed as yolk edema at 100 ug/ml treated for 96 hrs post fertilization starting from 6 hrs post fertilization by inverted microscopic analysis relative to control. The class given is organism-based. Conditions: in vivo.
For data set [20], the species on record is Danio rerio. Nature of the data set: Toxicity in wild type zebrafish embryos assessed as heart beat at 1000 ug/ml treated for 96 hrs post fertilization starting from 6 hrs post fertilization by inverted microscopic analysis relative to control. It is filed as organism-based. Conditions: in vivo.
The species entered for data set [21] is Danio rerio. Nature of the data set: Toxicity in wild type zebrafish embryos assessed as heart beat at 100 ug/ml treated for 96 hrs post fertilization starting from 6 hrs post fertilization by inverted microscopic analysis relative to control. The class given is organism-based. The following applies: in vivo.
Data set [22] is filed under the species Danio rerio. Nature of the data set: Toxicity in wild type zebrafish embryos assessed as blood circulation at 2500 ug/ml treated for 96 hrs post fertilization starting from 6 hrs post fertilization by inverted microscopic analysis relative to control. The class given is organism-based. The following applies: in vivo.
For data set [23], the species on record is Danio rerio. Nature of the data set: Toxicity in wild type zebrafish embryos assessed as blood circulation at 2000 ug/ml treated for 96 hrs post fertilization starting from 6 hrs post fertilization by inverted microscopic analysis relative to control. The class given is organism-based. Conditions: in vivo.
For data set [24], the species on record is Danio rerio. As to the kind of experiment: Toxicity in wild type zebrafish embryos assessed as blood circulation at 1000 ug/ml treated for 96 hrs post fertilization starting from 6 hrs post fertilization by inverted microscopic analysis relative to control. The class given is organism-based. The following applies: in vivo.
Data set [25] is filed under the species Danio rerio. As to the kind of experiment: Toxicity in wild type zebrafish embryos assessed as blood circulation at 500 ug/ml treated for 96 hrs post fertilization starting from 6 hrs post fertilization by inverted microscopic analysis relative to control. It is filed as organism-based. The following applies: in vivo.
The species entered for data set [26] is Danio rerio. Nature of the data set: Toxicity in wild type zebrafish embryos assessed as blood circulation at 100 ug/ml treated for 96 hrs post fertilization starting from 6 hrs post fertilization by inverted microscopic analysis relative to control. It is filed as organism-based. The following applies: in vivo.
The species named for data set [27] is Danio rerio. As to the kind of experiment: Toxicity in wild type zebrafish embryos assessed as head malformation at 2000 ug/ml treated for 96 hrs post fertilization starting from 6 hrs post fertilization by inverted microscopic analysis relative to control. It is filed as organism-based. The following applies: in vivo.
Data set [28] is filed under the species Danio rerio. Nature of the data set: Toxicity in wild type zebrafish embryos assessed as head malformation at 100 ug/ml treated for 96 hrs post fertilization starting from 6 hrs post fertilization by inverted microscopic analysis relative to control. It is filed as organism-based. Conditions: in vivo.
For data set [29], the species on record is Danio rerio. As to the kind of experiment: Toxicity in wild type zebrafish embryos assessed as skeletal deformities at 2500 ug/ml treated for 96 hrs post fertilization starting from 6 hrs post fertilization by inverted microscopic analysis relative to control. The class given is organism-based. The following applies: in vivo.

Calls of active or inactive are those of the source. The rule behind the calls is not given here.

For `O=c1cc(-c2ccccc2)c2ccc(O)cc2o1`, the melanin content % of control on Tyrosinase (Danio rerio) worked out at 24%.
Take `O=c1cc(CO)occ1O` [KOJIC ACID]: the mortality at 500 ug/ml in data set [1] turned out to be 0%. Moreover, the outcome in the data set listed under Danio rerio [2] was inactive. The Activity is reported as 100% in the data set listed under Danio rerio [3]; 98.33% in the data set filed under Danio rerio [4]; 35% in the data set listed under Danio rerio [5]; 0% in the data set filed under Danio rerio [6]; 0% in the data set filed under Danio rerio [7]; 0% in the data set listed under Danio rerio [8]. The Activity in the data set listed under Danio rerio [9] stood at 0%; in the data set listed under Danio rerio [10] it was 0%; in the data set listed under Danio rerio [11], 0%; in the data set listed under Danio rerio [12], 0%; in the data set filed under Danio rerio [13], 31.67%; in the data set with Danio rerio [14] it was 100%. The Activity with Danio rerio [15] was determined as 98.33%; in the data set on Danio rerio [16], 35%; in the data set with Danio rerio [17] it was 5%; in the data set on Danio rerio [18] it was 0%; in the data set on Danio rerio [19] it was 0%; in the data set listed under Danio rerio [20], 83.33%. The Activity in the data set filed under Danio rerio [21] is 0%; in the data set listed under Danio rerio [22] it was 10%; in the data set listed under Danio rerio [23] it was 6.67%; in the data set filed under Danio rerio [24], 0%; in the data set filed under Danio rerio [25], 0%; in the data set listed under Danio rerio [26], 0%. Also, the results for the Activity in the data set filed under Danio rerio [27], in the data set listed under Danio rerio [28] and in the data set filed under Danio rerio [29] were 78.33%, 0% and 98.33%, respectively.
